Legend:
[1] = test system: STAM Model of Advanced Non-Alcoholic Steatohepatitis; assay: Alpha-SMA immunostaining, α-SMA-positive area in STAM mice; type: in vivo, C57BL/6 mice; conditions: for Alpha-SMA-positive area: mean ± SD
Experimental: For immunohistochemistry, sections were cut from frozen liver tissues embedded in Tissue-Tek O.C.T. compound and fixed in acetone. Endogenous peroxidase activity was blocked using 0.03% H2O2 for 5 minutes, followed by incubation with Block Ace (Dainippon Sumitomo Pharma, Japan) for 10 minutes. The sections were incubated with a 200-fold dilution of anti-α-SMA (Epitomics, USA) or anti-F4/80 antibody (BMA Biomedicals, Switzerland) 1 hour at room temperature. […] For quantitative analysis of fibrosis area, inflammation area, and semi-quantification of α-SMA, bright field images of Sirius red-stained, F4/80- and α-SMA-immunostained sections were captured around the central vein using a digital camera (DFC280: Leica Microsystems, Germany) at 200-fold magnification, and the positive areas in 5 fields/section were measured using ImageJ software (National Institute of Health, USA). […] P values<0.05 were considered statistically significant. […] Results were expressed as mean±SD.

Five-Lipoxygenase mRNA = assay: Liver gene expression by quantitative RT-PCR: Five-Lipoxygenase; type: in vivo, C57BL/6 mice
Experimental: (§1) Total RNA was extracted from liver samples using RNAiso (Takara Bio, Japan) according to the manufacturer's instructions. One μg of RNA was reverse-transcribed using a reaction mixture containing 4.4 mM MgCl2 (F. Hoffmann-La Roche, Switzerland), 40 U RNase inhibitor (Toyobo, Japan), 0.5 mM dNTP (Promega, USA), 6.28 μM random hexamer (Promega), 5× first strand buffer (Promega), 10 mM dithiothreitol (Invitrogen, USA) and 200 U MMLV-RT (Invitrogen) in a final volume of 20 μL. The reaction was carried out for 1 hour at 37° C., followed by 5 minutes at 99° C. Real-time PCR was performed using real-time PCR DICE and SYBR premix Taq (Takara Bio). To calculate the relative mRNA expression level, the expression of each gene was normalized to that of reference gene 36B4 (gene symbol: Rp1p0). Information of PCR-primer sets are described in Table 1. [table] […] P values<0.05 were considered statistically significant. […] Results were expressed as mean±SD.

[2] = test system: STAM Model of Advanced Non-Alcoholic Steatohepatitis; assay: HE staining and NAFLD Activity Score (NAS) in STAM mice; type: in vivo, C57BL/6 mice; parameters: key to NAS (NAFLD Activity Score): NAS scored per Kleiner criteria (Hepatology 2005); conditions: for NAS (NAFLD Activity Score): mean ± SD; for Number of mice with Steatosis score 0: score 0 = <5%; for Number of mice with Lobular inflammation score 0: score 0 = No foci; for Number of mice with Steatosis score 1: score 1 = 5-33%; for Number of mice with Lobular inflammation score 1: score 1 = <2 foci/200x; for Number of mice with Hepatocyte ballooning score 1: score 1 = Few balloon cells; for Number of mice with Lobular inflammation score 2: score 2 = 2-4 foci/200x; for Number of mice with Steatosis score 2: score 2 = >33-66%; for Number of mice with Hepatocyte ballooning score 2: score 2 = Many cells/prominent ballooning
Experimental: STAM™ is a useful model for advanced non-alcoholic steatohepatitis (advanced NASH), symptoms thereof, and related liver disorders, created by the combination of chemical and dietary interventions in C57BL/6 mice. In this example, after inducing NASH, it was allowed to reach an advanced stage, and the mice were treated at 8-12 weeks. […] Vehicle, MN-001, and Telmisartan were administered by oral route in a volume of 10 mL/kg. […] For HE staining, sections were cut from paraffin blocks of liver tissue prefixed in Bouin's solution and stained with Lillie-Mayer's Hematoxylin (Muto Pure Chemicals, Japan) and eosin solution (Wako Pure Chemical Industries). NAFLD Activity score (NAS) was calculated according to the criteria of Kleiner (Kleiner D E. et al., Hepatology, 2005; 41:1313). To visualize collagen deposition, Bouin's fixed liver sections were stained using picro-Sirius red solution (Waldeck, Germany). […] P values<0.05 were considered statistically significant. […] Results were expressed as mean±SD. Ten NASH mice were orally administered vehicle supplemented with MN-001 at a dose of 10 mg/kg once daily from 8 to 12 weeks of age. Ten NASH mice were orally administered vehicle supplemented with MN-001 at a dose of 30 mg/kg once daily from 8 to 12 weeks of age. Ten NASH mice were orally administered vehicle supplemented with MN-001 at a dose of 100 mg/kg once daily from 8 to 12 weeks of age. Ten NASH mice were orally administered pure water supplemented with Telmisartan at a dose of 10 mg/kg once daily from 8 to 12 weeks of age.

[3] = Telmisartan 10 mg/kg oral once daily, 8 to 12 weeks of age
Experimental: NASH was induced in 50 male mice by a single subcutaneous injection of 200 μg streptozotocin (STZ, Sigma-Aldrich, USA) solution 2 days after birth and feeding with high fat diet (HFD, 57 kcal % fat, cat#: HFD32, CLEA Japan, Japan) after 4 weeks of age.
MN-001 was administered at doses of 10, 30, and 100 mg/kg once daily. Telmisartan was administered at a dose of 10 mg/kg once daily.
Statistical analyses were performed using Bonferroni Multiple Comparison Test on GraphPad Prism 4 (GraphPad Software, USA). P values<0.05 were considered statistically significant. A trend or tendency was assumed when a one-tailed t-test returned P values<0.10. Results were expressed as mean±SD.
The viability, clinical signs and behavior were monitored daily. Body weight was recorded before the treatment. […] The animals were sacrificed by exsanguination through direct cardiac puncture under ether anesthesia (Wako Pure Chemical Industries).

LTC4 synthase mRNA = assay: Liver gene expression by quantitative RT-PCR: LTC4 synthase; type: in vivo, C57BL/6 mice; conditions: Telmisartan 10 mg/kg oral once daily, 8 to 12 weeks of age
Experimental: as §1

FLAP mRNA = assay: Liver gene expression by quantitative RT-PCR: FLAP; type: in vivo, C57BL/6 mice; conditions: 100 mg/kg oral once daily, 8 to 12 weeks of age (MN-001-high)
Experimental: as §1

[4] = 10 mg/kg oral once daily, 8 to 12 weeks of age (MN-001-low; Telmisartan)
[5] = 10 mg/kg oral once daily, 8 to 12 weeks of age (MN-001-low n=10; Telmisartan n=9)
[6] = 30 mg/kg oral once daily, 8 to 12 weeks of age (MN-001-middle)
[7] = 100 mg/kg oral once daily, 8 to 12 weeks of age (MN-001-high)
[8] = 30 mg/kg oral once daily, 8 to 12 weeks of age (MN-001-middle, n=10)
[9] = 100 mg/kg oral once daily, 8 to 12 weeks of age (MN-001-high, n=10)
[10] = all doses of MN-001 (10, 30, 100 mg/kg oral once daily, 8 to 12 weeks of age)
[11] = high dose, 100 mg/kg oral once daily, 8 to 12 weeks of age
[12] = middle dose, 30 mg/kg oral once daily, 8 to 12 weeks of age

## CCCc1nc2c(C)cc(-c3nc4ccccc4n3C)cc2n1Cc1ccc(-c2ccccc2C(=O)O)cc1 [Telmisartan, reference compound]
[1]; [4]
  α-SMA-positive area compared with the Vehicle group: significantly decreased
[1]; [5]
  Alpha-SMA-positive area: 0.35 ± 0.14%
Five-Lipoxygenase mRNA; [4]
  Five-Lipoxygenase mRNA expression levels compared with the Vehicle group: tended to decrease
[2]; Telmisartan 10 mg/kg oral once daily, 8 to 12 weeks of age
  NAS compared with the Vehicle group: significantly decreased
[2]; [5]
  NAS (NAFLD Activity Score): 2.8 ± 0.8
  Number of mice with Steatosis score 0: 2
  Number of mice with Lobular inflammation score 0: 2
  Number of mice with Steatosis score 1: 7
  Number of mice with Lobular inflammation score 1: 5
  Number of mice with Hepatocyte ballooning score 1: 9
  Number of mice with Lobular inflammation score 2: 2
[3]
  Mortality (animals found dead): One of the Telmisartan group was found dead on day 24
LTC4 synthase mRNA
  LTC4 synthase mRNA expression levels compared with the Vehicle group: tended to decrease

## CCCc1c(SCCCOc2ccc(C(C)=O)c(OCCCC(=O)O)c2CCC)ccc(C(C)=O)c1O [MN-001]
FLAP mRNA
  FLAP mRNA expression levels compared with the Vehicle group: tended to increase
[1]; [4]
  α-SMA-positive area compared with the Vehicle group: significantly decreased
[1]; [6]
  α-SMA-positive area compared with the Vehicle group: no significant difference
[1]; [7]
  α-SMA-positive area compared with the Vehicle group: significantly decreased
[1]; [5]
  Alpha-SMA-positive area: 0.45 ± 0.11%
[1]; [8]
  Alpha-SMA-positive area: 0.76 ± 0.19%
[1]; [9]
  Alpha-SMA-positive area: 0.48 ± 0.21%
Five-Lipoxygenase mRNA; [4]
  Five-Lipoxygenase mRNA expression levels compared with the Vehicle group: no significant differences
Five-Lipoxygenase mRNA; [6]
  Five-Lipoxygenase mRNA expression levels compared with the Vehicle group: no significant differences
Five-Lipoxygenase mRNA; [7]
  Five-Lipoxygenase mRNA expression levels compared with the Vehicle group: tended to decrease
[2]; [10]
  Hepatocellular ballooning and inflammatory cell infiltration in HE-stained liver sections: marked improvements
  NAS compared with the Vehicle group: significantly decreased
[2]; [11]
  Ballooning score: significantly reduced
  NAS compared with the Vehicle group: significantly decreased
[2]; [5]
  NAS (NAFLD Activity Score): 3.6 ± 1.4
  Number of mice with Steatosis score 0: 3
  Number of mice with Lobular inflammation score 0: 2
  Number of mice with Steatosis score 1: 6
  Number of mice with Lobular inflammation score 1: 2
  Number of mice with Hepatocyte ballooning score 1: 6
  Number of mice with Lobular inflammation score 2: 6
  Number of mice with Steatosis score 2: 1
  Number of mice with Hepatocyte ballooning score 2: 4
[2]; [8]
  NAS (NAFLD Activity Score): 4.0 ± 0.9
  Number of mice with Lobular inflammation score 0: 1
  Number of mice with Steatosis score 1: 7
  Number of mice with Lobular inflammation score 1: 6
  Number of mice with Hepatocyte ballooning score 1: 5
  Number of mice with Lobular inflammation score 2: 3
  Number of mice with Steatosis score 2: 3
  Number of mice with Hepatocyte ballooning score 2: 5
[2]; [9]
  NAS (NAFLD Activity Score): 3.1 ± 0.7
  Number of mice with Lobular inflammation score 0: 4
  Number of mice with Steatosis score 1: 9
  Number of mice with Lobular inflammation score 1: 5
  Number of mice with Hepatocyte ballooning score 1: 7
  Number of mice with Lobular inflammation score 2: 1
  Number of mice with Steatosis score 2: 1
  Number of mice with Hepatocyte ballooning score 2: 3
[2]; [12]
  Ballooning score: significantly reduced
  NAS compared with the Vehicle group: significantly decreased
